# According to patent US20180271863A1, “TARGETING P2 PURINERGIC RECEPTORS TO TREAT HEPATOCELLULAR CARCINOMA (HCC)” (Baylor College of Medicine, priority 2015, published 2018):
# Columns and labels:
# PLC/PRF/5 cells = test: MTT assay of cell proliferation and viability, PLC/PRF/5; format: cell-based, human; details: ATP 100 μM, 18 h
# Protocol: (§1) Normal human primary hepatocytes isolated from healthy adults (no known history of HCC) in suspension or freshly-frozen prior to shipment (Cryoport Systems, CA) were purchased from Triangle Research Labs, NC. Fresh hepatocytes were plated on collagen-coated tissue culture plates or glass coverslips in Williams E complete media with additives (10% fetal bovine serum, 2 mM glutamine, […] insulin, 4 ng/ml glucagon, […] transferrin, 2.5 ng/ml sodium selenite, 10,000 U/ml penicillin, […] streptomycin, 50 g/ml gentamycin) for 3 h to ensure hepatocyte adherence to plates. Subsequently, hepatocytes were maintained in Williams E minimal media free from serum and growth factors for 24 h prior to treatment. Human hepatocellular carcinoma derived Huh7, and Hep3B, were cultured in Minimum Essential Medium Eagle (MEM); SNU-387 was cultured in Roswell Park Memorial Institute (RPMI) medium and PLC/PRF/5 cultured in Dulbecco's Modified Eagle's medium (DMEM). All maintenance culture media were supplemented with 10% fetal bovine serum (FBS), L-Glutamine (2 mM), penicillin (100 units/ml) and streptomycin ([…]) at 37° C. and 5% CO2. […]
# (§2) Cell viability was determined using the 3-(4, 5-dimethylthiazol-2-yl)-2,5-diphenyltetrazolium (MTT, Sigma) assays. […] After shaking the plates for 30 min, the absorbance at 570 nm was measured (background subtraction at […]).
# human hepatocytes = test: MTT assay of cell proliferation and viability, human hepatocytes; format: cell-based; details: 18 h treatment
# Protocol: as §1, §2
# Huh7 cells [1] = test: qRT-PCR of YAP target genes in Huh7 cells; format: cell-based, human; details: 24 h treatment
# Source text: Total RNA was isolated from human livers or cells and was amplified by qRT-PCR as described recently (Oncotarget 2015; 6:41162-41179). Next, Applicants tested whether extracellular nucleotide treatment may have an effect on YAP target genes important in hepatocellular carcinoma. […] Moreover, P2X3 antagonist (AF-353) pretreatment attenuated ATP mediated induction of survivin (FIG. 20G).
# Huh7 cells [2] = test: qRT-PCR of cyclin mRNA in Huh7 cells; format: cell-based, human; details: 6 h treatment
# Protocol: Normal human primary hepatocytes isolated from healthy adults (no known history of HCC) in suspension or freshly-frozen prior to shipment (Cryoport Systems, CA) were purchased from Triangle Research Labs, NC. Fresh hepatocytes were plated on collagen-coated tissue culture plates or glass coverslips in Williams E complete media with additives (10% fetal bovine serum, 2 mM glutamine, […] insulin, 4 ng/ml glucagon, […] transferrin, 2.5 ng/ml sodium selenite, 10,000 U/ml penicillin, […] streptomycin, 50 g/ml gentamycin) for 3 h to ensure hepatocyte adherence to plates. Subsequently, hepatocytes were maintained in Williams E minimal media free from serum and growth factors for 24 h prior to treatment. Human hepatocellular carcinoma derived Huh7, and Hep3B, were cultured in Minimum Essential Medium Eagle (MEM); SNU-387 was cultured in Roswell Park Memorial Institute (RPMI) medium and PLC/PRF/5 cultured in Dulbecco's Modified Eagle's medium (DMEM). All maintenance culture media were supplemented with 10% fetal bovine serum (FBS), L-Glutamine (2 mM), penicillin (100 units/ml) and streptomycin ([…]) at 37° C. and 5% CO2. Cells were maintained in serum free media (containing 2 mM L-Glutamine, 100 units/ml penicillin and ([…])) streptomycin for 24 h prior to treatment. Total RNA was isolated from human livers or cells using Trizol Reagent according to manufacturer's instructions (Invitrogen, NY). Complementary DNA (cDNA) synthesis was performed by reverse transcription of total RNA (2 μg) with high capacity cDNA reverse transcription kit (Applied Biosystems, Foster city, CA). The cDNA product was amplified by qRT-PCR in Step One Plus Real-Time PCR system using SYBR Green PCR Master Mix (Applied Biosystems, Grand Island, N.Y.). Quantitative expression values were determined using the […] as specified by manufacturers using GAPDH as a control.
# Huh7 cells [3] = test: Western blotting for JNK phosphorylation in Huh7 cells; format: cell-based, human; details: 100 μM, 15 min
# Protocol: Applicants have previously shown that extracellular nucleotide-mediated activation of JNK signaling induces cell-cycle progression and proliferation of rat primary hepatocytes in vitro. To determine whether extracellular nucleotides induce JNK signaling in transformed hepatocytes, Huh7 cells were treated with nucleotides for 5, 15 and 30 min and total protein extracts were analyzed by Western blotting for JNK phosphorylation (Ser^Thr/Tyi). ATPγS treatment alone was sufficient to induce JNK phosphorylation as early as 15 min (1.7 fold) (FIG. 10A). […] Total protein extracts were obtained by homogenizing cells in total lysis buffer (50 mM Tris-HCl, pH 7.5, 0.5 M NaCl, 2 mM EGTA, 2 mM EDTA, 1.0% Triton X-100, 0.25% Deoxycholate, 1 m/ml pepstatin, 1.0 m/ml leupeptin, 1.0 m/ml aprotinin, 1.0 mM phenylmethylsulfonyl fluoride, 1.0 mM Dithiothreitol, 2.0 mM activated Na3VO4, and 2.0 mM NaF) and centrifuging at 14,000 rpm for 10 min (4° C.). Equal amounts of total proteins as determined by BCA protein Assay (Pierce, Rockford, Ill.) were analyzed by Western blotting. Blots were probed with antibody specific for a-tubulin or GAPDH to ensure equal loading of proteins in each lane.
SMILES,increase in cell proliferation and viability (MTT) (PLC/PRF/5 cells),increase in cell proliferation and viability (MTT) (human hepatocytes),AREG gene expression (Huh7 cells [1]),CTGF gene expression (Huh7 cells [1]),Sox9 gene expression (Huh7 cells [1]),cyclin E gene expression (Huh7 cells [1]),survivin gene expression (Huh7 cells [1]),Cyclin D3 mRNA expression vs untreated cells (Huh7 cells [2]),JNK phosphorylation (Huh7 cells [3])
Nc1ncnc2c1ncn2[C@@H]1O[C@H](COP(=O)(O)OP(=O)(O)OP(=O)(O)O)[C@@H](O)[C@H]1O [ATP],43%,27%,5.1 fold,3.4 fold,2.0 fold,2.1 fold,1.1 fold,–,–
Nc1ncnc2c1ncn2[C@@H]1O[C@H](COP(=O)(O)OP(=O)(O)OP(O)(O)=S)[C@@H](O)[C@H]1O [ATPγS],–,64%,3.3 fold,2.2 fold,1.6 fold,2.0 fold,1.1 fold,2.1 fold,1.7 fold
